# Measured values from patent publication US20050271755A1, “Phytomedicinal compositions for the control of lipid accumulation and metabolism in mammals” (priority 2004, published 2005).
# What was measured:
# [1] = cited from earlier work
# Human pancreatic lipase = biological target: T1, Human pancreatic lipase (Homo sapiens, UniProt P16233); experiment: Pancreatic Lipase (PL) inhibitory test (Lipase-PS kit); assay type: biochemical; details: FIG. 3 / FIG. 14
# T1 construct: purchased Sigma-Aldrich
# T1 sequence (P16233 17-465): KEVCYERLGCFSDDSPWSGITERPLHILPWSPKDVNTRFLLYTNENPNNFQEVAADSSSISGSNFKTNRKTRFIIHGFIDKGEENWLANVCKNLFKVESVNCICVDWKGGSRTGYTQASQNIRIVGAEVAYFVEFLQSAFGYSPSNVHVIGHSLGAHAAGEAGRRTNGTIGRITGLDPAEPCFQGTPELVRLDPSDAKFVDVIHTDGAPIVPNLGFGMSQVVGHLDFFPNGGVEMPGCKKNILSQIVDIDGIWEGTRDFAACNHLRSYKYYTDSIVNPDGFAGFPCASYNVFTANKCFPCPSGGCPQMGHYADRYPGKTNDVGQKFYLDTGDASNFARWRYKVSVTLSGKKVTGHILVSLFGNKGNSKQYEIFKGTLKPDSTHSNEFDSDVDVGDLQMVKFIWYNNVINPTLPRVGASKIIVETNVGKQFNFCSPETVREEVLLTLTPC
# T1 sequence (P04118 23-112 partner): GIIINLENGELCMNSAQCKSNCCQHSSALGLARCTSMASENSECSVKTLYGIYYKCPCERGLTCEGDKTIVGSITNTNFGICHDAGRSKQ
# Experimental: A Pancreatic Lipase (PL) inhibitory test was performed with a commercial kit (Lipase-PSTM Trinity Biotech USA, Jamestown, N.Y.). Lipase-PSTM reagents were obtained from Trinity Biotech USA (Lipase-PSTM was manufactured by Sigma Diagnostics (Procedure No. 805, Sigma-Aldrich, St. Louis, Mo. until 2003)). […] Louis, Mo.). […] Activator reagent (300 μL) was added and mixed by gentle inversion and the samples were incubated again for 3 min. at 37° C. The recorded rate of increase in absorbance at 550 nm due to the formation of quinone diimine dye was used to determine the pancreatic lipase activity in the samples prepared, as detailed in the literature. Lott, J. A., et al., Lipase Isoforms and Amylase Isoenzymes: Assays and Application in the Diagnosis of Acute Pancreatitis, Clinical Chemistry, 37, 361 (1991); Moreno […]., Fried […]., 2003, Inhibitory effects of grape seed extract on lipases, Nutrition 19, 876-879 (hereinafter “Moreno et al. 2003”).
Structure (SMILES),diarrhea (in words) ([1]; literature),inhibition of dietary fat absorption ([1]; recommended therapeutic dose of 120 mg three times a day),inhibitory effect on in vitro pancreatic lipase (in words) (Human pancreatic lipase),inhibitory effect on in vitro pancreatic lipase (in words) (Human pancreatic lipase; listed as Esculetin)
CCCCCCCCCCC[C@@H](C[C@@H]1OC(=O)[C@H]1CCCCCC)OC(=O)[C@H](CC(C)C)NC=O [Orlistat],common side effect,about 30%,,
"O=c1ccc2cc(O)c(O)cc2o1 [esculetin, 6,7-dihydroxycoumarin]",,,particularly strong inhibitory effect,strong inhibitory effect on PL in a dose dependent manner
